This note sets out measurements from patent US7462615B2, “Inhibitors of cysteine proteases, the pharmaceutical compositions thereof and their therapeutic applications” (Hybrigenics SA, priority 2005, dated 2008).

One assay has as its target T1, Uch-L3 (Homo sapiens, UniProt P15374).
T1 sequence (P15374 1-230): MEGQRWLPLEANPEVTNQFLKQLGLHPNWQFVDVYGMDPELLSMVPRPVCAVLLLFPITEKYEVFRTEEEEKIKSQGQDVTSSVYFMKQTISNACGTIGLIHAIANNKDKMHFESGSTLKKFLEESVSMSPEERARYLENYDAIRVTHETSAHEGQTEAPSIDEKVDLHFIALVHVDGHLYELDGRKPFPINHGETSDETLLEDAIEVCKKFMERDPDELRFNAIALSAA
Kind of assay: UCH-L3 Activity Assay. The format is biochemical. Conditions: 400 nM Ub-AMC; 13 pM enzyme; pre-incubated 30 minutes at 25° C., 60 minutes at 37° C.; sigmoidal fit; read-out: Uch-L3 (Inhibition of cysteine protease activities). As for the experimental part: Uch-L3 was diluted in USP buffer (50 mM Tris HCl; 0.5 mM EDTA; 5 mM DTT; 0.01% Triton X-100; Bovine Serum Albumin 0.05 mg.ml^−1 pH7.6). Compounds stocks (100 mM) were stored at −20° C. in DMSO. Compounds were tested at the following final concentrations: 100 μM; 33.3 μM; 11.1 μM: 3.7 μM; 1.23 μM; 412 nM; 137 nM; 45.7 nM; 15.2 nM; 5 nM.
Reactions were performed as duplicates in Black LJL 96 well plates (HE microplates; Molecular Devices; 20 μl final reaction volume). The substrate concentration for Uch-L3 was 400 nM Ub-AMC (Boston Biochem). The concentration of the enzyme (Uch-L3) in specificity assays was 13 pM. The concentrations were determined in order to perform specificity assays under initial velocities at fixed substrate concentration. Compounds were pre-incubated with enzymes for 30 minutes at 25° C. Reactions were initiated by addition of substrate to the plates containing the enzymes (+/−compounds) diluted in assay buffer. Reactions were incubated for 60 minutes at 37° C. Reactions were stopped by adding acetic acid (100 mM final). Readings were performed on a Pherastar Fluorescent Reader (BMG). δ Emission 380 nm; δ Excitation=460 nm. Data (mean values +/− standard deviation) were analyzed as % of control (no compound) and plotted as percentage versus the Log of the compound concentration using GraphPad (Prism). Data were fitted to a sigmoidal model (variable slope).

A further assay deals with T2, MBP-SENP1 (Homo sapiens, UniProt Q9P0U3).
T2 construct: made in house; host or cells: E. coli BL21
T2 sequence (Q9P0U3 1-644): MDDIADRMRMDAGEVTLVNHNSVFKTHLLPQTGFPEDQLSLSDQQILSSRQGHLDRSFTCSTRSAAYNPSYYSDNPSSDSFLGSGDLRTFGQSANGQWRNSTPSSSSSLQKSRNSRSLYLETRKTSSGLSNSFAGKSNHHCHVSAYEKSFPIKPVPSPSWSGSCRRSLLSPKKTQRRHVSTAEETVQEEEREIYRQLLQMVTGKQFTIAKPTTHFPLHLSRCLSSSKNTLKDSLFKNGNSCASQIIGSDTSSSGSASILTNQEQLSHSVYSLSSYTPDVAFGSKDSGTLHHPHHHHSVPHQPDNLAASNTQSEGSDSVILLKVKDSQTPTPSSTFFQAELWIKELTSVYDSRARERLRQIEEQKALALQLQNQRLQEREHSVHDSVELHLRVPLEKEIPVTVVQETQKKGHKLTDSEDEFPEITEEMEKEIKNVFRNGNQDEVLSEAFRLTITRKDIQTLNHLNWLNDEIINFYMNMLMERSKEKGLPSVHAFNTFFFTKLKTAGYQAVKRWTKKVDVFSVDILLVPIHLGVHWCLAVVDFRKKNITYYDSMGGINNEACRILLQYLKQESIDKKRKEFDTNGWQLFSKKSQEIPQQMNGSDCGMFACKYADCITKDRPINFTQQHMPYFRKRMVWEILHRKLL
Kind of assay: SENP1 Activity Assay. Conditions: 200 nM SUMO-AMC; 1.8 nM enzyme; pre-incubated 30 minutes at 25° C., 60 minutes at 37° C.; sigmoidal fit; read-out: SENP1 (Inhibition of cysteine protease activities). The format is biochemical. As for the experimental part: The cDNA encoding SENP1 was obtained by PCR amplification from placenta mRNA. SENP1 cDNA was subcloned by PCR into a bacterial expression vector (pMAL-C2X; New England BioLabs, Inc). The sequence was ascertained by sequencing of the entire open reading frame. pMAL-C2-SENP1 was transformed into BL21 cells and grown in LB-ampicillin medium supplemented with glucose (2 g.l^−1). Fusion protein expression was induced by IPTG (0.5 mM). Bacterial cell lysates were harvested and lyzed in lysis buffer (Tris HCl 20 mM pH7.4; 1 mM EDTA; 200 mM NaCl; 0.5% Triton X-100; 10% glycerol; Protease Inhibitor Cocktail) followed by sonication. Proteins were affinity purified on amylose affinity resin (New England BioLabs, Inc). Bound materials were extensively washed in wash buffer (20 mM Tris HCl pH7.4; 200 mM NaCl; 1 mM EDTA; 0.5% Triton X-100; 10% glycerol) and eluted from the resin in 10 mM maltose-containing wash buffer. Proteins were dialyzed in dialysis buffer (Tris HCl pH 7.6 20 mM; NaCl 200 mM; DTT 1 mM; EDTA 1 mM; 10% Glycerol). Proteins purifications were analyzed on 4-12% NuPAGE (Invitrogen).
MBP-SENP1 was diluted in SENP1 buffer (50 mM Tris HCl; 0.5 mM EDTA; 5 mM DTT; 0.01% Triton X-100; Bovine Serum Albumin 0.05 mg.ml^−1 pH7.6). Compounds stocks (100 mM) were stored at −20° C. in DMSO. Compounds were tested at the following final concentrations: 100 μM; 33.3 μM; 11.1 μM; 3.7 μM; 1.23 μM; 412 nM; 137 nM; 45.7 nM; 15.2 nM; 5 nM.
Reactions were performed as duplicates in Black LJL 96 well plates (HE microplates; Molecular Devices; 20 μl final reaction volume). The substrate concentration for SENP1 was 200 nM SUMO-AMC (Chem. Biol., 2003, 10, p. 837-846) (Boston Biochem). The concentration of the enzyme (SENP1) in specificity assays was 1.8 nM. The concentrations were determined in order to perform specificity assays under initial velocities at fixed substrate concentration. Compounds were pre-incubated with enzymes for 30 minutes at 25° C. Reactions were initiated by addition of substrate to the plates containing the enzymes (+/− compounds) diluted in assay buffer. Reactions were incubated for 60 minutes at 37° C. Reactions were stopped by adding acetic acid (100 mM final). Readings were performed on a Pherastar Fluorescent Reader (BMG). λ Emission 380 nm; λ Excitation=460 nm. Data (mean values +/− standard deviation) were analyzed as % of control (no compound) and plotted as percentage versus the Log of the compound concentration using GraphPad (Prism). Data were fitted to a sigmoidal model (variable slope).

For “6-(7)-Chloro-1-methyl-2,3,4,10,10a-pentaaza-cyclopenta[b]fluoren-9-one [Example 3/A]”, the figures for the IC50 at Uch-L3 and at MBP-SENP1 were 323 nM and > 100000 nM, respectively.

With `Cc1nnc2nc3c(nn12)C(=O)c1ccccc1-3` [Example 1b/A, 1-Methyl-2,3,4,10,10a-pentaaza-cyclopenta[b]fluoren-9-one], the IC50 on Uch-L3 amounted to 516 nM.

Regarding `Cc1nnc2nc3c(nn12)-c1ccccc1C3=O` [Example 1b/B, 3-Methyl-1,2,3a,4,10-pentaaza-cyclopenta[b]fluoren-9-one], the figures for the IC50 on Uch-L3 and at MBP-SENP1 were 143 nM and 706 nM, respectively.

As to `Nc1nnc2nc3c(nn12)C(=O)c1ccccc1-3` [Example 1c/A, 1-Amino-2,3,4,10,10a-pentaaza-cyclopenta[b]fluoren-9-one], at Uch-L3, the IC50 came to 860 nM.

As to `Nc1nnc2nc3c(nn12)-c1ccccc1C3=O` [Example 1c/B, 3-Amino-1,2,3a,4,10-pentaaza-cyclopenta[b]fluoren-9-one], the IC50 on Uch-L3 turned out to be 133 nM; at MBP-SENP1 it was 731 nM.

For the compound `CCc1nnc2nc3c(nn12)C(=O)c1ccccc1-3` [Example 1d/A, 1-Ethyl-2,3,4,10,10a-pentaaza-cyclopenta[b]fluoren-9-one], the IC50 at Uch-L3 is 430 nM; on MBP-SENP1, > 100000 nM.

For `CCc1nnc2nc3c(nn12)-c1ccccc1C3=O` [Example 1d/B, 3-Ethyl-1,2,3a, 4,10-pentaaza-cyclopenta[b]fluoran-9-one], the IC50 on Uch-L3 stood at 95 nM; at MBP-SENP1 it was 415 nM.

Turning to `CCCc1nnc2nc3c(nn12)C(=O)c1ccccc1-3` [Example 1e/A, 1-Propyl-2,3,4,10,10a-pentaaza-cyclopenta[b]fluoren-9-one], the IC50 was determined as 1270 nM at Uch-L3 and 5880 nM on MBP-SENP1.

Take `CCCc1nnc2nc3c(nn12)-c1ccccc1C3=O` [Example 1e/B, 3-Propyl-1,2,3a, 4,10-pentaaza-cyclopenta[b]fluoren-9-one]: the values for the IC50 at Uch-L3 and on MBP-SENP1 were 168 nM and 694 nM, respectively.

For the compound `CCCCc1nnc2nc3c(nn12)C(=O)c1ccccc1-3` [Example 1f/A, 1-Butyl-2,3,4,10,10a-pentaaza-cyclopenta[b]fluoren-9-one], the IC50 on Uch-L3 is 364 nM; on MBP-SENP1, > 100000 nM.

In the case of `CCCCc1nnc2nc3c(nn12)-c1ccccc1C3=O` [Example 1f/B, 3-Butyl-1,2,3a,4,10-pentaaza-cyclopenta[b]fluoren-9-one], the IC50 on Uch-L3 amounted to 91 nM; on MBP-SENP1, 229 nM.

For the compound `CC(C)Cc1nnc2nc3c(nn12)C(=O)c1ccccc1-3` [Example 1g/A, 1-Isobutyl-2,3,4,10,10a-pentaaza-cyclopenta[b]fluoren-9-one], the IC50 at Uch-L3 was 636 nM; at MBP-SENP1, > 100000 nM.

For the compound `CC(C)Cc1nnc2nc3c(nn12)-c1ccccc1C3=O` [Example 1g/B, 3-Isobutyl-1,2,3a,4,10-pentaaza-cyclopenta[b]fluoren-9-one], the IC50 at Uch-L3 stood at 183 nM; at MBP-SENP1 it was 954 nM.

Take `O=C1c2ccccc2-c2nc3nnc(CO)n3nc21` [Example 1h/A, 1-Hydroxymethyl-2,3,4,10,10a-pentaaza-cyclopenta[b]fluoren-9-one]: the IC50 on Uch-L3 stood at 390 nM.

In the case of `O=C1c2ccccc2-c2nn3c(CO)nnc3nc21` [Example 1h/B], the results for the IC50 at Uch-L3 and on MBP-SENP1 were 158 nM and 1020 nM, respectively.

Take `COCc1nnc2nc3c(nn12)C(=O)c1ccccc1-3` [Example 1i/A, 1-Methoxymethyl-2,3,4,10,10a-pentaaza-cyclopenta[b]fluoren-9-one]: the results for the IC50 on Uch-L3 and on MBP-SENP1 were 261 nM and 22100 nM, respectively.

Take `COCc1nnc2nc3c(nn12)-c1ccccc1C3=O` [Example 1i/B, 3-Methoxymethyl-1,2,3a, 4,10-pentaaza-cyclopenta[b]fluoren-9-one]: the IC50 on Uch-L3 is 202 nM; at MBP-SENP1, 1090 nM.

`O=C1c2ccccc2-c2nc3nnc(C4CC4)n3nc21` [Example 1j/A, 1-Cyclopropyl-2,3,4,10,10a-pentaaza-cyclopenta[b]fluoren-9-one]: the IC50 at Uch-L3 was 1900 nM; at MBP-SENP1, > 100000 nM.

With `O=C1c2ccccc2-c2nn3c(C4CC4)nnc3nc21` [Example 1j/B, 3-Cyclopropyl-1,2,3a,4,10-pentaaza-cyclopenta[b]fluoren-9-one], the results for the IC50 at Uch-L3 and on MBP-SENP1 were 55 nM and 299 nM, respectively.

In the case of `O=C1c2ccccc2-c2nc3nnc(Cc4ccccc4)n3nc21` [Example 1k/A, 1-Benzyl-2,3,4,10,10a-pentaaza-cyclopenta[b]fluoren-9-one], the figures for the IC50 at Uch-L3 and on MBP-SENP1 were 598 nM and > 100000 nM, respectively.

For the compound `O=C1c2ccccc2-c2nn3c(Cc4ccccc4)nnc3nc21` [Example 1k/B, 3-Benzyl-1,2,3a,4,10-pentaaza-cyclopenta[b]fluoren-9-one], the figures for the IC50 on Uch-L3 and at MBP-SENP1 were 164 nM and 1210 nM, respectively.

For the compound `Cc1nnc2nc3c(nn12)-c1ccc(Cl)cc1C3=O` [Example 3/B, 7-Chloro-3-methyl-1,2,3a, 4,10-pentaaza-cyclopenta[b]fluoren-9-one], the figures for the IC50 on Uch-L3 and at MBP-SENP1 were 71 nM and 855 nM, respectively.

On to `Cn1nc2nc3c(nc2n1)-c1ccccc1C3=O` [Example 4a, 2-Methyl-2H-1,2,3,4,10-pentaaza-cyclopenta[b]fluoren-9-one], for which, on Uch-L3, the IC50 was 3400 nM.

Regarding `O=C1c2ccccc2-c2nc3nn(Cc4ccccc4)nc3nc21` [Example 4b, 2-Benzyl-2H-1,2,3,4,10-pentaaza-cyclopenta[b]fluoren-9-one], at Uch-L3, the IC50 was 7800 nM.
